In US5128362A, “1-aminomethyl-1,2,3,4-tetrahydronaphthalenes” (Abbott Laboratories, priority 1990, dated 1992):
Counter-ions that a name gives are not always drawn.

Test system: alpha 2 receptor
Experiment: Radioligand binding, [3H]rauwolscine, rat cerebral cortices
Details: Ki alpha 1/Ki alpha-2
Experimental: (§1) The compounds were assessed for alpha-adrenergic receptor subtype selectivity by use of radioligand binding techniques as described previously (DeBernardis et. al. J. Med. Chem. 28, 1398 (1985)).

| Structure (SMILES) | alpha-2 - Selectivity Ki alpha 1/Ki alpha-2 |
| --- | --- |
| CN(CCc1cccs1)CC1CCCc2c(Cl)cccc21 (centres unmarked) [Example 129, 1-((N-Methylamino)methyl-N-(2-(2-thieny)ethyl))-5-chloro tetralin hydrochloride] | 55 |
| Fc1ccc2c(c1)CCCC2CN1CCC(c2ccccc2)C1 (centres unmarked) [Example 148, 6-Fluoro-1-(3-phenylpyrrolidino-1-methyl) tetralin methanesulfonate] | 19 |
| COc1ccc2c(c1)CCCC2CN(C)CCC1CCCS1 (centres unmarked) [Example 6h, 1-((N-methylamino)methyl-N-(2-(2-tetrahydrothienyl)ethyl)) 6-methoxy tetralin hydrochloride] | 430 |

Biological target: T1, alpha 2 receptor (Rattus norvegicus, UniProt P22909)
T1 construct: rat cerebral cortices; from tissue; host or cells: rat cerebral cortices
T1 sequence (P22909 1-465): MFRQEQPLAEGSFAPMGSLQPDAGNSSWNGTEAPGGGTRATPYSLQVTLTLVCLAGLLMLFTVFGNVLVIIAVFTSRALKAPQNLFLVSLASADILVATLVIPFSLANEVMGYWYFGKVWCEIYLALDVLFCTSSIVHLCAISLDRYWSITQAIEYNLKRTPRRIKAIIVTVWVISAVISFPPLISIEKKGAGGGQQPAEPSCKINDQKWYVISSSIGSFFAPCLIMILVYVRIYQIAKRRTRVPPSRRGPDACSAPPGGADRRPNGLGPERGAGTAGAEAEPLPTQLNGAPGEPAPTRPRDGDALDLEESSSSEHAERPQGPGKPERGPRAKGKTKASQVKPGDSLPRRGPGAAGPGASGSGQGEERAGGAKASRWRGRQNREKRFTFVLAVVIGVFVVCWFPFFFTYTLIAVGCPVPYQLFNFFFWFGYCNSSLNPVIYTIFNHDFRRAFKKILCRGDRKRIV
Experiment: as above
Details: not given
Experimental: as §1

| Structure (SMILES) | Ki [nM] |
| --- | --- |
| COc1ccc2c(c1)CCCC2CN(C)CCC1CCCC1 (centres unmarked) [Example 6f, 1-((N-methylamino)methyl-N-(2-(cyclopentyl)ethyl))-6-methoxy tetralin hydrochloride] | 6.5 |

Same assay, conditions: read-out: Ki alpha-2

| Structure (SMILES) | Ki [nM] |
| --- | --- |
| COc1ccc2c(c1)C(CN(C)CCc1cccs1)CCC2 (centres unmarked) [Example 27, 1-((N-Methylamino)methyl-N-(2-(2-thienyl)ethyl))-7-methoxy tetralin hydrochloride] | 2 |
| CCN(CCc1cccs1)CC1CCCc2c1ccc1c2OCCO1 (centres unmarked) [Example 168, 1-((N-Ethylamino)methyl-N-(2-(2-thienyl)ethyl))-5,6-ethylenedioxy tetralin hydrochloride] | 6.6 |
| CN(CCc1cccs1)CC1CCCc2ccccc21 (centres unmarked) [Example 22, 1-((N-Methylamino)methyl-N-(2-(2-thienyl)ethyl)) tetralin hydrochloride] | 1.3 |
| CN(CCc1cccc(F)c1)CC1CCCc2ccccc21 (centres unmarked) [Example 70, 1-((N-Methylamino)methyl-N-(2-(m-fluorophenyl)ethyl))-tetralin hydrochloride] | 5 |
| CN(CCc1ccccc1)CC1CCCc2cc(N)ccc21 (centres unmarked) [Example 114, 1-((N-Methylaminomethyl-N-(2-phenylethyl))-6-aminotetralindihydrochloride] | 5.7 |
| CCN(CCc1cccc(F)c1)CC1CCCc2cc(OC)ccc21 (centres unmarked) [Example 42, 1-((N-Ethylamino)methyl-N-(2-(m-fluorophenyl)ethyl))-6-methoxy tetralin hydrochloride] | 6.6 |
| COc1ccc2c(c1)CCCC2CN(C)CCc1cccn1C (centres unmarked) [Example 12, 1-((N-Methylamino)methyl-N-(2-(N-methyl-2-pyrrolyl)-ethyl))-6-methoxy tetralin fumarate] | 5 |
| COc1cc2c(cc1F)C(CN(C)CCc1ccco1)CCC2 (centres unmarked) [Example 141, 1-((N-methylamino)methyl-N-(2-(2-furyl)ethyl))-6-methoxy-7-fluoro tetralin methanesulfonate] | 4.8 |
| COc1ccc2c(c1)CCC2CN(C)CCc1cccs1 (centres unmarked) [Example 37, 1-((N-Methylamino)methyl-N-(2-(2-thienyl)ethyl))-5-methoxy indane hydrochloride] | 3.7 |
| COc1ccc2c(c1)CCCC2CN(C)CCc1cccs1 (centres unmarked) [Example 5, 1-((N-Methylamino)methyl-N-(2-(2-thienyl)ethyl))-6-methoxy tetralin methanesulfonate] | 0.8 |
| CN(CCc1cccs1)CC1CCCc2c(Cl)cccc21 (centres unmarked) [Example 129, 1-((N-Methylamino)methyl-N-(2-(2-thieny)ethyl))-5-chloro tetralin hydrochloride] | 3.6 |
| Fc1ccc2c(c1)CCCC2CN1CCC(c2ccccc2)C1 (centres unmarked) [Example 148, 6-Fluoro-1-(3-phenylpyrrolidino-1-methyl) tetralin methanesulfonate] | 6.5 |
| COc1ccc2c(c1)CCCC2CN(C)CCc1cccc(F)c1 (centres unmarked) [Example 6b, 1-((N-methylamino)methyl-N-(2-(m-fluorophenyl)ethyl))-6-methoxy tetralin hydrochloride] | 5 |
| COc1ccc2c(c1)CCCC2CN(C)CCC1CCCS1 (centres unmarked) [Example 6h, 1-((N-methylamino)methyl-N-(2-(2-tetrahydrothienyl)ethyl)) 6-methoxy tetralin hydrochloride] | 3.5 |
| COc1cc2c(cc1C)C(CN(C)CCc1ccco1)CCC2 (centres unmarked) [Example 128, 1-((N-Methylamino)methyl-N-(2-(2-furyl)ethyl))-methoxy-7-methyl tetralin hydrochloride] | 8 |
| CCN(CCc1cccs1)CC1CCCc2cc(OC)ccc21 (centres unmarked) [Example 41, 1-((N-Ethylamino)methyl-N-(2-(2-thienyl)ethyl))-6-methoxy tetralin hydrochloride] | 2.9 |
| COc1ccc2c(c1OC)CCCC2CN(C)CCc1cccs1 (centres unmarked) [Example 86, 1-((N-Methylamino)methyl-N-(2-(2-thienyl)ethyl))-5,6-dimethoxy tetralin hydrochloride] | 3 |
| CN(CCc1cccs1)CC1CCCc2c1ccc1c2OCO1 (centres unmarked) [Example 23, 1-((N-Methylamino)methyl-N-(2-(2-thienyl)ethyl))-5,6-methylenedioxy tetralin hydrochloride] | 1.7 |
| CCN(CCc1ccco1)CC1CCCc2cc(OC)ccc21 (centres unmarked) [Example 43, 1-((N-Ethylamino)methyl-N-(2-(2-furyl)ethyl))-6-methoxy tetralin hydrochloride] | 6 |
| CCN(CCc1cccc(F)c1)CC1CCCc2c1ccc1c2OCO1 (centres unmarked) [Example 165, 1-((N-Ethylamino)methyl-N-(2-m-fluorophenethyl))-5,6-methylenedioxy tetralin hydrochloride] | 3.5 |

| Structure (SMILES) | Ki [nM] |
| --- | --- |
| c1csc(C2CCN(CC3CCCc4c3ccc3c4OCO3)C2)c1 (centres unmarked) [Example 144, 5,6-Methylenedioxy-1-(3-(2-thienyl)pyrrolidino-1-methyl) tetralin methanesulfonate] | 1.2 |
| Fc1ccccc1C1CCN(CC2CCCc3c2ccc2c3OCO2)C1 (centres unmarked) [Example 176a, 5.6-Methylenedioxy-1-(3-(o-fluorophenyl)pyrrolidino-1-methyl) tetralin methanesulfonate] | 0.6 |
| COc1ccc2c(c1)CCCC2CN(C)CCc1cccc(N)c1 (centres unmarked) [Example 67, 1-((N-Methylamino)methyl-N-(2-(m-aminophenyl)ethyl))-6-methoxy tetralin dihydrochloride] | 6 |
| CCN(CCc1ccsc1)CC1CCCc2cc(OC)ccc21 (centres unmarked) [Example 44, 1-((N-Ethylamino)methyl-N-(2-(3-thienyl)ethyl))-6-methoxy tetralin hydrochloride] | 5.6 |
| CN(CCc1cccc(F)c1)CC1CCCc2c1ccc(O)c2O (centres unmarked) [Example 85, 1-((N-Methylamino)methyl-N-(2-(m-fluorophenyl)ethyl))-5,6-dihydroxy tetralin hydrochloride] | 1.5 |
| CN(CCc1cccs1)CC1CCCc2cc(O)ccc21 (centres unmarked) [Example 7, 1-((N-Methylamino)methyl-N-(2-(2-thienyl)ethyl))-6-hydroxy tetralin hydrochloride] | 1.6 |
| CN(CCc1cccs1)CC1CCCc2cc(Cl)ccc21 (centres unmarked) [Example 49, 1-((N-Methylamino)methyl-N-(2-(2-thienyl)ethyl))-6-chloro tetralin hydrochloride] | 10 |
| CCN(CCc1cccs1)CC1CCCc2c1ccc1c2OCO1 (centres unmarked) [Example 164, 1-(N-Ethylamino)methyl-N-(2-(2-thienyl)ethyl))-5,6-methylenedioxy tetralin hydrochloride] | 3.7 |
| CN(CCc1ccccc1)CC1CCCc2ccccc21 (centres unmarked) [Example 88, 1-((N-Methylamino)methyl-N-(2-phenethyl)) tetralin hydrochloride] | 2 |
| CN(CCc1cccc(N)c1)CC1CCCc2cc(O)ccc21 (centres unmarked) [Example 68, 1-((N-Methylamino)methyl-N-(2-(m-aminophenyl)ethyl))-6-hydroxy tetralin dihydrobromide] | 6 |
| CN(CCc1cccs1)CC1CCCc2c1ccc(O)c2I (centres unmarked) [Example 115, 1-((N-Methylamino)methyl-N-(2-(2-thienyl)ethyl))-5-iodo-6-hydroxy tetralin hydrochloride] | 3 |
| COc1ccc2c(c1)CCCC2CN(C)CCc1ccsc1 (centres unmarked) [Example 6d, 1-((N-methylamino)methyl-N-(2-(3-thienyl)ethyl))-6-methoxy tetralin hydrochloride] | 1.5 |
| CN(CCc1cccs1)CC1CCCc2c1ccc1c2OCCO1 (centres unmarked) [Example 30, 1-((N-Methylamino)methyl-N-(2-(2-thienyl)ethyl))-5,6-ethylenedioxy tetralin hydrochloride] | 4 |
| CN(CCc1cccc(F)c1)CC1CCCc2c1ccc1c2OCO1 (centres unmarked) [Example 166, 1-((N-Methylamino)methyl-N-(2-m-fluorophenethyl))-5,6-methylenedioxy tetralin methanesulfonate] | 4.5 |
| CN(CCc1cccc(O)c1)CC1CCCc2cc(O)ccc21 (centres unmarked) [Example 82, 1-((N-Methylamino)methyl-N-(2-(m-hydroxyphenyl)ethyl))-6-hydroxy tetralin hydrochloride] | 4 |
| CCCN(CCc1cccs1)CC1CCCc2cc(OC)ccc21 (centres unmarked) [Example 58, 1-((N-Propylamino)methyl)-N-(2-(2-thienyl)ethyl))-6-methoxy tetralin hydrochloride] | 18 |
| CN(CCc1cccs1)CC1CCCc2c1ccc(O)c2O (centres unmarked) [Example 87, 1-((N-Methylamino)methyl-N-(2-(2-thienyl)ethyl))-5,6-dihydroxy tetralin hydrochloride] | 1.6 |
| COc1ccc2c(c1)CCCC2CN(C)CCc1cccc(O)c1 (centres unmarked) [Example 83, 1-((N-Methylamino)methyl-N-(2-(m-hydroxyphenyl)ethyl))-6-methoxy tetralin hydrochloride] | 8 |
| COc1cc2c(c(OC)c1)C(CN(C)CCc1cccs1)CCC2 (centres unmarked) [Example 26, 1-((N-Methylamino)methyl-N-(2-(2-thienyl)ethyl))-6,8-dimethoxy tetralin hydrochloride] | 0.6 |
| Cc1cc(O)c(O)c2c1C(CN(C)CCc1cccc(F)c1)CCC2 (centres unmarked) [Example 34, 1-((N-Methylamino)methyl-N-(2-(m-fluorophenyl)ethyl))-5,6-dihydroxy-8-methyl tetralin hydrobromide] | 2.6 |
